Molecules are shown by their SMILES. Numbered stars: 1 amine (or outer) side, 2 acyl side, 3 side chain; on linkers, the order of the positions; unused ones are H or OH. Bridge positions count the residues as written; N and C are the ends. Square brackets hold non-standard residues; d marks the D form. Peptide text beside a SMILES is read from it. Trp(βS-Me,7-OMe) = COc1cccc2c([C@H](C)[C@H](N)C(=O)O)c[nH]c12; Ala(1-bicyclo(1.1.1)pentyl) = N[C@@H](CC12CC(C1)C2)C(=O)O; Phe(3-CH2NH2) = O=C([C@H](Cc1cccc(CN[*:3])c1)N[*:1])[*:2]; Trp(4-Cl) = N[C@@H](Cc1c[nH]c2cccc(Cl)c12)C(=O)O; Trp(7-Cl) = N[C@@H](Cc1c[nH]c2c(Cl)cccc12)C(=O)O; Phe(3-CONH2) = NC(=O)c1cccc(C[C@H](N)C(=O)O)c1; Phe(4-CONH2) = NC(=O)c1ccc(C[C@H](N)C(=O)O)cc1; Phe(4-COOH) = N[C@@H](Cc1ccc(C(=O)O)cc1)C(=O)O; Trp(7-aza) = N[C@@H](Cc1c[nH]c2ncccc12)C(=O)O; Phe(4-CH2NH2) = NCc1ccc(C[C@H](N)C(=O)O)cc1; dPro(4S-NH2) = N[C@@H]1CN[C@@H](C(=O)O)C1; Pip(5R-OH) = O=C(O)[C@@H]1CC[C@@H](O)CN1; αMeW = C[C@](N)(Cc1c[nH]c2ccccc12)C(=O)O; X1 = O=C([C@@H]1CC[C@H](N[*:1])C1)[*:2]; dPro(4,4-F2) = O=C(O)[C@H]1CC(F)(F)CN1; Pip(4-aza) = O=C(O)[C@@H]1CNCCN1; 4Pal = N[C@@H](Cc1ccncc1)C(=O)O; NMeE = CN[C@@H](CCC(=O)O)C(=O)O; NMeN = CN[C@@H](CC(N)=O)C(=O)O; αMeS = C[C@](N)(CO)C(=O)O; Nle = CCCC[C@H](N)C(=O)O; Sar = CNCC(=O)O

By IC50 is commonly meant the concentration that gives 50% inhibition.

The target of the assay is T1, TNFα-induced NF-κB signal transduction pathway (TNFR1 signaling) in THP-1 cells (Homo sapiens, UniProt P19438).
T1 sequence (P19438 30-455): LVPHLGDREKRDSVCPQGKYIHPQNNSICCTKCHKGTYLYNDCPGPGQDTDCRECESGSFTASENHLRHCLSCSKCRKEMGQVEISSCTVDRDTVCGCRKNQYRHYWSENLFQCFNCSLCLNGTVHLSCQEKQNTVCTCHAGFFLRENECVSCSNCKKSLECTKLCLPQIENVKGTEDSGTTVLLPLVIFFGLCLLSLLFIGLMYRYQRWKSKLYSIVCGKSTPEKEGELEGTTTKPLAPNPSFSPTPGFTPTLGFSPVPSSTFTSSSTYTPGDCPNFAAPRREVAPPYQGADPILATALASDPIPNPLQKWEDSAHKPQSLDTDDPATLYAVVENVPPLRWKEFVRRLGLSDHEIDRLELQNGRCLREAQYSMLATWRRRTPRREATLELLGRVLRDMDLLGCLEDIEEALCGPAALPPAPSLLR
The assay is described as follows: THP-1 Lucia NF-κB reporter cell assay, inhibition of TNFα-induced NF-κB signaling. The class given is cell-based. The conditions noted are these: THP-1 NF-κB Lucia reporter cells, 10 ng/mL TNFα, 16-18 h, secreted luciferase; read-out: THP-1 IC50. An outline of the steps: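 Read-out: secreted Lucia luciferase luminescence (QUANTI-Luc) from supernatant after 16-18 h, 37 °C, 10 ng/mL rhTNFα. Peptide pretreatment 1 h at 37 °C; 20,000 cells/well, selection antibiotics omitted. IC50 via 4-parameter logistic model against min/max controls.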
In the case of `CCCC[C@@H]1NC(=O)[C@@H]2CC[C@@H](C2)NC(=O)[C@H]([C@@H](C)c2c[nH]c3c(OC)cccc23)NC(=O)CN(C)C(=O)[C@H](Cc2ccc(O)cc2)NC(=O)[C@H](Cc2ccc(C(=O)O)cc2)NC(=O)[C@](C)(CO)NC(=O)[C@H](Cc2c[nH]c3c(Cl)cccc23)NC(=O)[C@H](Cc2ccncc2)NC(=O)[C@H](CC(N)=O)NC(=O)[C@H]2CC(F)(F)CN2C(=O)[C@H](Cc2c[nH]c3ccccc23)NC(=O)[C@@H]2CNCCN2C(=O)[C@H](Cc2ccncc2)NC1=O` [SEQ ID NO. 266] (cyclo([4Pal][Trp(7-Cl)][αMeS][Phe(4-COOH)]Y[Sar][Trp(βS-Me,7-OMe)][X1][Nle][4Pal][Pip(4-aza)]W[dPro(4,4-F2)]N)), the IC50 amounted to 0.9 nM.

For the molecule `CCCC[C@@H]1NC(=O)[C@@H]2CC[C@@H](C2)NC(=O)[C@H]([C@@H](C)c2c[nH]c3c(OC)cccc23)NC(=O)CN(C)C(=O)[C@H](Cc2ccc(C(N)=O)cc2)NC(=O)[C@H](Cc2ccc(C(N)=O)cc2)NC(=O)[C@](C)(CO)NC(=O)[C@H](Cc2c[nH]c3c(Cl)cccc23)NC(=O)[C@H](Cc2ccncc2)NC(=O)[C@H](CC(N)=O)NC(=O)[C@H](CCC(=O)O)N(C)C(=O)[C@H](Cc2c[nH]c3ncccc23)NC(=O)[C@@H]2CC[C@@H](O)CN2C(=O)[C@H](Cc2ccncc2)NC1=O` [SEQ ID NO. 189] (cyclo([4Pal][Trp(7-Cl)][αMeS][Phe(4-CONH2)][Phe(4-CONH2)][Sar][Trp(βS-Me,7-OMe)][X1][Nle][4Pal][Pip(5R-OH)][Trp(7-aza)][NMeE]N)), the IC50 stood at 0.6 nM.

Regarding `CN1CC(=O)N[C@@H](Cc2c[nH]c3cccc(Cl)c23)C(=O)N[C@H](C(N)=O)CSCC(=O)N[C@@H](CC23CC(C2)C3)C(=O)N[C@@H](Cc2cccc(CN)c2)C(=O)N[C@@H](CO)C(=O)N[C@@H](Cc2c[nH]c3c(Cl)cccc23)C(=O)N2CCC[C@@H]2C(=O)N(C)[C@@H](CC(N)=O)C(=O)N[C@@H](Cc2ccc(C(=O)O)cc2)C(=O)N[C@@H](Cc2c[nH]c3c(Cl)cccc23)C(=O)N[C@@](C)(CO)C(=O)N[C@@H](Cc2ccc(C(=O)O)cc2)C(=O)N[C@@H](Cc2cccc(CN)c2)C1=O` [SEQ ID NO. 222] ({CH2CO}-[Ala(1-bicyclo(1.1.1)pentyl)][Phe(3-CH2NH2)]S[Trp(7-Cl)][dP][NMeN][Phe(4-COOH)][Trp(7-Cl)][αMeS][Phe(4-COOH)][Phe(3-CH2NH2)][Sar][Trp(4-Cl)]C-NH2; thioether N-14), the IC50 came to 5.7 nM.

For the molecule `CCCC[C@@H]1NC(=O)CSC[C@@H](C(N)=O)NC(=O)[C@](C)(Cc2c[nH]c3ccccc23)NC(=O)CN(C)C(=O)[C@H](Cc2ccc(O)cc2)NC(=O)[C@H](Cc2cccc(C(N)=O)c2)NC(=O)[C@](C)(CO)NC(=O)[C@H](Cc2c[nH]c3c(Cl)cccc23)NC(=O)[C@H](Cc2ccncc2)NC(=O)[C@H](CC(N)=O)NC(=O)[C@H](CCC(=O)O)N(C)C(=O)[C@H](Cc2c[nH]c3ncccc23)NC(=O)[C@H](CO)NC(=O)[C@H](Cc2ccc(CN)cc2)NC1=O` [SEQ ID NO. 205] ({CH2CO}-[Nle][Phe(4-CH2NH2)]S[Trp(7-aza)][NMeE]N[4Pal][Trp(7-Cl)][αMeS][Phe(3-CONH2)]Y[Sar][αMeW]C-NH2; thioether N-14), the IC50 amounted to 7.2 nM.

For the molecule `CCCC[C@@H]1NC(=O)[C@@H]2CC[C@@H](C2)NC(=O)[C@H]([C@@H](C)c2c[nH]c3c(OC)cccc23)NC(=O)CN(C)C(=O)[C@H](Cc2ccc(O)cc2)NC(=O)[C@H](Cc2ccc(C(N)=O)cc2)NC(=O)[C@](C)(CO)NC(=O)[C@H](Cc2c[nH]c3c(Cl)cccc23)NC(=O)[C@H](Cc2ccncc2)NC(=O)[C@H](CC(N)=O)NC(=O)[C@H]2C[C@H](N)CN2C(=O)[C@H](Cc2c[nH]c3ccccc23)NC(=O)[C@@H]2CC[C@@H](O)CN2C(=O)[C@H](Cc2ccncc2)NC1=O` [SEQ ID NO. 144] (cyclo([4Pal][Trp(7-Cl)][αMeS][Phe(4-CONH2)]Y[Sar][Trp(βS-Me,7-OMe)][X1][Nle][4Pal][Pip(5R-OH)]W[dPro(4S-NH2)]N)), the IC50 amounted to 0.6 nM.

On to `CCCC[C@@H]1NC(=O)[C@@H]2CC[C@@H](C2)NC(=O)[C@H]([C@@H](C)c2c[nH]c3c(OC)cccc23)NC(=O)CN(C)C(=O)[C@H](Cc2ccc(O)cc2)NC(=O)[C@H](Cc2ccc(C(=O)O)cc2)NC(=O)[C@](C)(CO)NC(=O)[C@H](Cc2c[nH]c3c(Cl)cccc23)NC(=O)[C@H](Cc2ccncc2)NC(=O)[C@H](CC(N)=O)NC(=O)[C@H]2C[C@H](N)CN2C(=O)[C@H](Cc2c[nH]c3ccccc23)NC(=O)[C@@H]2CNCCN2C(=O)[C@H](Cc2ccncc2)NC1=O` [SEQ ID NO. 161] (cyclo([4Pal][Trp(7-Cl)][αMeS][Phe(4-COOH)]Y[Sar][Trp(βS-Me,7-OMe)][X1][Nle][4Pal][Pip(4-aza)]W[dPro(4S-NH2)]N)), for which the IC50 was 1.3 nM.

The record behind these values is patent US20240287138A1, “CYCLIC PEPTIDES FOR INHIBITING TNF RECEPTOR 1 ACTIVITY” (Merck Sharp & Dohme LLC, priority 2023, published 2024).
